From article PMC5635026, “Homo-PROTACs: bivalent small-molecule dimerizers of the VHL E3 ubiquitin ligase to induce self-degradation” (Nature Communications, 2017)

Legend:
pVHL19 [1] = molecular target: T1, pVHL19 (Homo sapiens, UniProt P40337); experiment: Immunoblot of pVHL19 protein level in HeLa cells after compound treatment; assay type: cell-based; set-up: endogenous in cells; host or cells: HeLa; details: 10 h, read-out: pVHL19 band quantification normalized to 0.1% DMSO
Procedure: (§1) Cell culture. Human cell lines HeLa, U2OS and HEK 293, purchased from ATCC, were propagated in DMEM supplemented with 10% fetal bovine serum (FBS), L- glutamine, 100 μg ml^−1 of penicillin/streptomycin at 37 °C and 5% CO2. Cells were maintained for no more than 30 passages. All cell lines were routinely tested for mycoplasma contamination using MycoAlert kit from Lonza. For compound treatment experiments, cells were transferred in six-well plates with either 3 × 10^5 or 5 × 10^5 cells per well in 2 ml of media. At 80% confluence, cells were treated with compounds at the desired concentration, reaching final DMSO concentration of 0.1% v/v. Cells were incubated at 37 °C and 5% CO2 for the desired time before harvesting.
(§2) Immunoblotting. Cells were lysed in lysis buffer (20 mM Tris pH 8, 150 mM NaCl, 1% Triton × 100) and a protease inhibitor cocktail (Roche) per 10 ml buffer. For protein extracts, the dishes were placed on ice. The media was aspirated and the tissue layer washed twice with ice-cold phosphate buffer saline (PBS). Lysis buffer (120 μl) was added and the cells detached from the surface with a cell scraper. After removal of the insoluble fraction by centrifugation, the protein concentration of the supernatant was determined by Pierce™ Coomassie (Bradford) Protein Assay Kit. Protein extracts were fractionated by SDS-PAGE on 4–12% Tris-Acetate NuPage® Novex® (Life Technologies) polyacrylamide gels and transferred to a nitrocellulose membrane using wet transfer. The membrane was then blocked with 5 % w/v Bovine serum albumin (BSA) in Tris-buffered saline (TBS) with 0.1% w/v Tween-20. For detecting proteins the following primary antibodies in the given concentrations were used: anti-β-Actin (Cell Signaling Technology, 4970S, 13E5) 1:2000, anti-VHL (Cell Signaling Technology, #68547) 1:1000, anti-Hif-1α (BD Biosciences, 610959, clone 54) 1:1,000, anti-hydroxy-HIF-1α (Hyp564) (Cell Signaling Techonology; #3434) 1:1,000, anti-PHD2 (Bethyl Laboratories; A300-322A) 1:1,000, anti-PHD3 (Bethyl Laboratories; A300-327A) 1:1000, anti-CRBN (Proteintech; 11435-1-AP) 1:1,000. Following incubation with a horseradish peroxidase-conjugated secondary antibody (Cell Signaling Technology), the signal was developed using enhanced chemiluminescence (ECL) Western Blotting Detection Kit (Amersham) on Amersham Hyperfilm ECL film (Amersham). Band quantification was performed using ImageJ software and reported as relative amount as ratio of the each protein band relative to the lane’s loading control. The values obtained were then normalized to 0.1% DMSO vehicle control. See Supplementary Fig. 12 for full-scanned images of western-blots shown in the main text figures.
Target sequence in this assay (P40337 54-213): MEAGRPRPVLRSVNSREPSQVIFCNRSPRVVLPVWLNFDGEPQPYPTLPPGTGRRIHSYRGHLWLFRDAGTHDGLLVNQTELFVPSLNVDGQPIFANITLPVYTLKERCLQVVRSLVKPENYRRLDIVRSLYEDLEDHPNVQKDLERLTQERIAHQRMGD
Target sequence in this assay (Q15369 whole entry partner): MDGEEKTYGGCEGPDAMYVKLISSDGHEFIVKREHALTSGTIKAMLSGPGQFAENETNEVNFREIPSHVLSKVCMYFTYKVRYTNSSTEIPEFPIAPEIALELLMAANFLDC
Target sequence in this assay (Q15370 whole entry partner): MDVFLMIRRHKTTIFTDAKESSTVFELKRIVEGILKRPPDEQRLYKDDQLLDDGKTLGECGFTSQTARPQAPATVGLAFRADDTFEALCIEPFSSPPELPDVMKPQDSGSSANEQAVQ

HIF-1α = experiment: TMT MS proteomics in HeLa cells, HIF-1α level; assay type: cell-based, Human; details: 150 µM, 10 h
Procedure: MS proteomics. Sample preparation. HeLa cells were seeded at 5 × 10^6 on a 10 cm plate 16 h before treatment. […] Cells were incubated at 37 °C and 5% CO2 for 10 h before harvesting. Cells were placed on ice and medium was removed and cells were washed twice with cold PBS. Cells were lysed in 0.5 ml of 100 mM Tris pH 8.0, 4% (w/v) SDS supplemented with protease inhibitor cocktail (Roche). The lysate was pulse sonicated briefly and then centrifuged at 17,000 × g for 15 min at 4 °C. The supernatant fraction of cell extract was snap-frozen in liquid nitrogen and stored in −80 °C freezer. Further sample processing, digestion, desalting, labeling and fractionation were performed as previously described.
nLC-MS/MS analysis. The TMT 10plex fractions were first analyzed as previously described. Briefly, the TMT 10plex fractions were analyzed sequentially on a Q Exactive HF Hybrid Quadrupole-Orbitrap Mass Spectrometer (Thermo Scientific) coupled to an UltiMate 3000 RSLCnano UHPLC system (Thermo Scientific) and EasySpray column (75 μm × 50 cm, PepMap RSLC C18 column, 2 μm, 100 Å, Thermo Scientific). The MS2 isolation window was set to 0.4 Da and the resolution set at 120,000. MS2 resolution was set at 60,000. […] After the first analysis, the TMT labeled fractions were re-analyzed on the Q-Exactive HF using the same instrument settings and a target list generated from a theoretical trypsin digest of VHL. […]

Hdy-HIF-1α = experiment: Immunoblot of HIF-1α / hydroxylated HIF-1α levels in HeLa cells; assay type: cell-based, Human
Procedure: as §1, §2

pVHL30 = pVHL30 (Homo sapiens, UniProt P40337); experiment: Immunoblot of pVHL30 protein level in HeLa cells after compound treatment; assay type: cell-based; set-up: endogenous in cells; host or cells: HeLa; details: 10 h, read-out: pVHL30 band quantification normalized to 0.1% DMSO
Procedure: as §1, §2

pVHL19 [2] = molecular target: T1, pVHL19; set-up: made in house; method as in PMID 25166285; details: ITC, ref [18]; cited from earlier work
Target sequence in this assay (P40337 54-213): as the sequence (P40337 54-213) above
Target sequence in this assay (Q15369 17-112 partner limits assumed): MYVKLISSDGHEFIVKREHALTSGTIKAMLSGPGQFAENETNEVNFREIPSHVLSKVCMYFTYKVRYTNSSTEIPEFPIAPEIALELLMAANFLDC
Target sequence in this assay (Q15370 1-104 partner limits assumed): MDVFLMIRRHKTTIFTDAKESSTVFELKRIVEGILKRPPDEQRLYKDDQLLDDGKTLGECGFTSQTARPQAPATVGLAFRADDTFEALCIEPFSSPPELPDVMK

pVHL30, sequence (P40337 whole entry): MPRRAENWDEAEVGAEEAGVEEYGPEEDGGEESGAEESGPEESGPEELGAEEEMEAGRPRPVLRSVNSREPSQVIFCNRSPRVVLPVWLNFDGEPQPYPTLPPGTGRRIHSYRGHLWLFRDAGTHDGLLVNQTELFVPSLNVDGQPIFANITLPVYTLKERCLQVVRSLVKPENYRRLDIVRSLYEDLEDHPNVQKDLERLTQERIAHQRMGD

## CC(=O)N[C@H](C(=O)N1C[C@H](O)C[C@H]1C(=O)NCc1ccc(-c2scnc2C)cc1)C(C)(C)C [VH032, reference compound]
pVHL19 [1]
  remaining activity at 150 µM: 113%
HIF-1α
  protein levels of HIF-1α: increased
Hdy-HIF-1α; HeLa, 1 µM
  effect on HIF-1α at 1 µM: completely ineffective
Hdy-HIF-1α; inhibitory concentration of the ligand alone in cells
  concentration at which active in cells: ~ 100 µM
pVHL30
  remaining pVHL30 protein level at 150 µM: 127%
pVHL19 [2]
  ΔG: –9.17 ± 0.02 kcal mol^−1
  ΔH: –5.53 ± 0.01 kcal mol^−1
  −TΔS: –3.65 ± 0.02 kcal mol^−1
